Measurements: US9187471B2, “Pyrido [4,3-b] indole and pyrido [3,4-b] indole derivatives and methods of use” (Medivation Technologies, Inc., priority 2010, dated 2015)

Legend:
[1] = target: T1, human recombinant serotonin (5-Hydroxytryptamine) 5-HT2C receptor (Homo sapiens, UniProt P28335); test: Serotonin 5-HT2C radioligand binding ([3H]Mesulergine); conditions: compound at 0.1 μM; read-out: Inhibition of ligand binding, Serotonin 5-HT2C (percent inhibition of specific binding)
T1 construct: expressed in transfected cells; host or cells: CHO-K1
T1 sequence (P28335 33-458): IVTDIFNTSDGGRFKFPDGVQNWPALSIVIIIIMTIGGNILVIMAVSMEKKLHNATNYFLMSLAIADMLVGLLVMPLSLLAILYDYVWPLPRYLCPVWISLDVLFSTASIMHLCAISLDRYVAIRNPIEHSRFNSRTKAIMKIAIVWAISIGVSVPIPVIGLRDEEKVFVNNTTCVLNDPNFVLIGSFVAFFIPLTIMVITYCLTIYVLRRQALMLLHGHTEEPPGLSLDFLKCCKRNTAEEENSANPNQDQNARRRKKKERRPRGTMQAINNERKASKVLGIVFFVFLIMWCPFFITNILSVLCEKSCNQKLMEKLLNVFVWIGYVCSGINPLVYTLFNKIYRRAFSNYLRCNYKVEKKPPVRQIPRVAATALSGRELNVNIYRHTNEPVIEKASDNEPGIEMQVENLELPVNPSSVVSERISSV
Protocol: Compounds of the invention were incubated with 1 nM [^3H]Mesulergine for 60 min at 25° C. Non-specific binding was estimated in the presence of 1 μM Mianserin. Receptor proteins were filtered and washed, the filters were then counted to determine [^3H]Mesulergine specifically bound.

[2] = target: T2, human recombinant serotonin (5-Hydroxytryptamine) 5-HT2A receptor (Homo sapiens, UniProt P28223); test: Serotonin 5-HT2A radioligand binding ([3H]Ketanserin); conditions: compound at 0.1 μM; read-out: Inhibition of ligand binding, Serotonin 5-HT2A (percent inhibition of specific binding)
T2 construct: expressed in transfected cells; host or cells: CHO-K1
T2 sequence (P28223 whole entry): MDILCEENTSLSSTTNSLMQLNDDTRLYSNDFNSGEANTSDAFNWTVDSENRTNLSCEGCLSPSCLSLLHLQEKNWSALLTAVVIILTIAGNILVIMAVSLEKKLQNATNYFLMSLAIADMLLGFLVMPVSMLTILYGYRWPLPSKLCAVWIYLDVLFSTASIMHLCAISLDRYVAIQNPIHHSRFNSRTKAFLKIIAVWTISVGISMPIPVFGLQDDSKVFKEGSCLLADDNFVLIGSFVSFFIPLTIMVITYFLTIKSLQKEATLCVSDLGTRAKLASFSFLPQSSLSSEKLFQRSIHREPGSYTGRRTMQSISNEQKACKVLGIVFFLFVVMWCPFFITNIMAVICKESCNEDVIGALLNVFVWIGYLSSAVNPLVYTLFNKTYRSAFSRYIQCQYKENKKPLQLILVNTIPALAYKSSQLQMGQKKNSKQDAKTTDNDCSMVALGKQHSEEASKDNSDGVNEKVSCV
Protocol: Compounds of the invention were incubated with 0.5 nM [^3H]Ketanserin for 60 min at 25° C. Non-specific binding was estimated in the presence of 1 μM Mianserin. Receptor proteins were filtered and washed, the filters were then counted to determine [^3H]Ketanserin specifically bound.

Row | SMILES | inhibition at 0.1 µM [1] [%] | inhibition at 0.1 µM [2] [%]
1 | Cc1ccc2c(c1)c1c(n2-c2cccc(-c3ccc(C)s3)c2)CCN(C)C1 [Compound No. 64, 2,8-dimethyl-5-(3-(5-methylthiophen-2-yl)phenyl)-2,3,4,5-tetrahydro-1H-pyrido[4,3-b]indole] | 83 | 102
2 | Cc1ccc2c(c1)c1c(n2-c2cscc2-c2ccnn2C)CCN(C)C1 [Compound No. 150] | 64 | 53
3 | Cc1csc(-c2ccc(-n3c4c(c5cc(C)ccc53)CN(C)CC4)nc2)c1 [Compound No. 144, 2,8-dimethyl-5-(5-(4-methylthiophen-2-yl)pyridin-2-yl)-2,3,4,5-tetrahydro-1H-pyrido[4,3-b]indole] | 100 | 103
4 | CC(=O)Nc1ccc(-c2cccc(-n3c4c(c5cc(C)ccc53)CN(C)CC4)c2)cn1 [Compound 45, N-(5-(3-(2,8-dimethyl-3,4-dihydro-1H-pyrido[4,3-b]indol-5(2H)-yl)phenyl)pyridin-2-yl)acetamide] | 26 | 71
5 | Cc1ccc2c(c1)c1c(n2-c2cccc(-c3sccc3C)c2)CCN(C)C1 [Compound 43, 2,8-dimethyl-5-(3-(3-methylthiophen-2-yl)phenyl)-2,3,4,5-tetrahydro-1H-pyrido[4,3-b]indole] | 8 | 102
6 | Cc1ccc2c(c1)c1c(n2-c2ccc(-c3ccc(C)nc3)cn2)CCN(C)C1 [Compound No. 156, 2,8-dimethyl-5-(6′-methyl-3,3′-bipyridin-6-yl)-2,3,4,5-tetrahydro-1H-pyrido[4,3-b]indole] | 96 | 90
7 | Cc1ccc2c(c1)c1c(n2-c2ccccc2-c2ccnn2C)CCN(C)C1 [Compound 32] | 50 | 59
8 | CC(=O)Nc1ccc(-c2ccccc2-n2c3c(c4cc(C)ccc42)CN(C)CC3)cn1 [Compound No. 83, N-(5-(2-(2,8-dimethyl-3,4-dihydro-1H-pyrido[4,3-b]indol-5(2H)-yl)phenyl)pyridin-2-yl)acetamide] | 15 | 41
9 | CNC(=O)c1ccc(-c2ccccc2-n2c3c(c4cc(C)ccc42)CN(C)CC3)cn1 [Compound No. 71, 5-(2-(2,8-dimethyl-3,4-dihydro-1H-pyrido[4,3-b]indol-5(2H)-yl)phenyl)-N-methylpicolinamide] | 15 | 1
10 | Cc1ccc2c(c1)c1c(n2-c2cscc2-c2cccc3[nH]ncc23)CCN(C)C1 [Compound 41] | 91 | 84
11 | Cc1ccc2c(c1)c1c(n2-c2cscc2-c2cnc(N(C)C)nc2)CCN(C)C1 [Compound 40] | 35 | 31
12 | Cc1ccc2c(c1)c1c(n2-c2cccc(-c3cc4ccccc4s3)c2)CCN(C)C1 [Compound 51, 5-(3-(benzo[b]thiophen-2-yl)phenyl)-2,8-dimethyl-2,3,4,5-tetrahydro-1H-pyrido[4,3-b]indole] | 55 | 86
13 | Cc1ccc2c(c1)c1c(n2-c2cscc2-c2c(C)noc2C)CCN(C)C1 [Compound 62] | 56 | 68
14 | Cc1ccc2c(c1)c1c(n2-c2ccc(-c3cnc(N(C)C)nc3)cn2)CCN(C)C1 [Compound No. 138, 5-(6-(2,8-dimethyl-3,4-dihydro-1H-pyrido[4,3-b]indol-5(2H)-yl)pyridin-3-yl)-N,N-dimethylpyrimidin-2-amine] | 86 | 83
15 | Cc1ccc2c(c1)c1c(n2-c2cccc(-c3c(C)noc3C)c2)CCN(C)C1 [Compound No. 65, 4-(3-(2,8-dimethyl-3,4-dihydro-1H-pyrido[4,3-b]indol-5(2H)-yl)phenyl)-3,5-dimethylisoxazole] | 57 | 85
16 | Cc1ccc2c(c1)c1c(n2-c2ccccc2-c2c(C)noc2C)CCN(C)C1 [Compound No. 82, 4-(2-(2,8-dimethyl-3,4-dihydro-1H-pyrido[4,3-b]indol-5(2H)-yl)phenyl)-3,5-dimethylisoxazole] | 68 | 73
17 | Cc1csc(-c2ccccc2-n2c3c(c4cc(C)ccc42)CN(C)CC3)c1 [Compound 36] | 83 | 80
18 | Cc1ccc2c(c1)c1c(n2-c2ccc(-c3cccc4ccccc34)cn2)CCN(C)C1 [Compound No. 141, 2,8-dimethyl-5-(5-(naphthalen-1-yl)pyridin-2-yl)-2,3,4,5-tetrahydro-1H-pyrido[4,3-b]indole] | 92 | 61
19 | Cc1ccc2c(c1)c1c(n2-c2ccc(-c3sccc3C)cn2)CCN(C)C1 [Compound No. 148, 2,8-dimethyl-5-(5-(3-methylthiophen-2-yl)pyridin-2-yl)-2,3,4,5-tetrahydro-1H-pyrido[4,3-b]indole] | 88 | 95
20 | Cc1ccc2c(c1)c1c(n2-c2ccccc2-c2ccc(C)nc2)CCN(C)C1 [Compound 59, 2,8-dimethyl-5-(2-(6-methylpyridin-3-yl)phenyl)-2,3,4,5-tetrahydro-1H-pyrido[4,3-b]indole] | 46 | 47
21 | CNC(=O)c1cc(-n2c3c(c4cc(C)ccc42)CN(C)CC3)cs1 [Compound No. 78] | 35 | 59
22 | Cc1ccc2c(c1)c1c(n2-c2ccccc2-c2ccc(C)s2)CCN(C)C1 [Compound No. 81, 2,8-dimethyl-5-(2-(5-methylthiophen-2-yl)phenyl)-2,3,4,5-tetrahydro-1H-pyrido[4,3-b]indole] | 89 | 87
23 | Cc1ccc2c(c1)c1c(n2-c2cccc(-c3ccnn3C)c2)CCN(C)C1 [Compound No. 66, 2,8-dimethyl-5-(3-(1-methyl-1H-pyrazol-5-yl)phenyl)-2,3,4,5-tetrahydro-1H-pyrido[4,3-b]indole] | 55 | 90
24 | Cc1ccc2c(c1)c1c(n2-c2ccc(-c3ccnn3C)cn2)CCN(C)C1 [Compound No. 146, 2,8-dimethyl-5-(5-(1-methyl-1H-pyrazol-5-yl)pyridin-2-yl)-2,3,4,5-tetrahydro-1H-pyrido[4,3-b]indole] | 30 | 57
25 | Cc1ccc2c(c1)c1c(n2-c2ccc3nc(C)ccc3c2)CCN(C)C1 [Compound No. 157, 2,8-dimethyl-5-(2-methyl-quinolin-6-yl)-2,3,4,5-tetrahydro-1H-pyrido[4,3-b]indole] | 88 | 88
26 | CNC(=O)c1cccc(-c2cscc2-n2c3c(c4cc(C)ccc42)CN(C)CC3)c1 [Compound No. 154] | 67 | 83
27 | Cc1ccc2c(c1)c1c(n2-c2ccc(-c3cccc4[nH]ncc34)cn2)CCN(C)C1 [Compound No. 147, 5-(5-(1H-indazol-4-yl)pyridin-2-yl)-2,8-dimethyl-2,3,4,5-tetrahydro-1H-pyrido[4,3-b]indole] | 69 | 62
28 | Cc1ccc2c(c1)c1c(n2-c2ccccc2-c2cnc(N(C)C)nc2)CCN(C)C1 [Compound 31] | 15 | 27
29 | Cc1ccc2c(c1)c1c(n2-c2cscc2-c2cncc3ccccc23)CCN(C)C1 [Compound 34] | 54 | 57
